The record followed here is patent US20220388962A1 (Biohaven Therapeutics Ltd., priority 2019, published 2022).

A word on the IC50: it is the point on the concentration scale where inhibition reaches its midpoint.

Structures can show the parent of a compound that is named as a salt.

In the first assay the target is TDP-43 (Homo sapiens, UniProt Q13148). In words: TDP-43-DNA alpha-screen assay (bt-TAR-32 displacement). The format is binding. The following applies: bt-TAR-32 0.125 nM, 15 ng/ml TDP-43. The protocol: Alpha-screen assay: Displacement of bt-TG6 binding was measured using AlphaScreen technology as previously described (Cassel, J. A. et al., Journal of Biomolecular Screening, 2010, 15, 1099-1106; Cassel, J. A.; Reitz, A. B. et al. The effects of small molecule inhibitors of nucleic acid binding to TDP-43 on TDP-43 metabolism and function. Biochimie, 2012, 94, 1974-1981).
Chain of TDP-43 (Q13148 whole entry): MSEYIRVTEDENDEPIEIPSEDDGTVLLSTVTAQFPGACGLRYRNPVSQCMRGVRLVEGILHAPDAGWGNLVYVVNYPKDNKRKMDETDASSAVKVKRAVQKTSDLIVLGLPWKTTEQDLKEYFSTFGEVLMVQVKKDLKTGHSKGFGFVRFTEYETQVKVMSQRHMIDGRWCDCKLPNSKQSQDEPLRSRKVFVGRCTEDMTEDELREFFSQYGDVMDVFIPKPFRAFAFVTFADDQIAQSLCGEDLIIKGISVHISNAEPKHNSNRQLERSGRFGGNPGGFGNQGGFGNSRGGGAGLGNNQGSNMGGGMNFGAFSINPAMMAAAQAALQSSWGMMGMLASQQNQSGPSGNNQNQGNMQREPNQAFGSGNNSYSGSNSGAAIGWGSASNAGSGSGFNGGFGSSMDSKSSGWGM
Test compounds were diluted in assay buffer (25 mM Tris [pH 7.4], 0.1% bovine serum albumin [BSA], 0.1% Triton X-100) at 4× the desired final concentration. Dilutions of test compound (50 to 0.02 μM in half-log dilutions with a no compound control well) were pre-incubated with TDP-43 (5 μl of 60 ng/mL) pre-bound to AlphaScreen® anti-GST acceptor beads (5 μl of 40 μg/mL) in 15 μl volume for 30 minutes at 23° C. with shaking. Assays were initiated by the addition of 5 μl bt-TAR-32 (5′-CTGCTTTTTGCCTGTACTGGGTCTCTGTGGTT-3′) 0.5 nM pre-bound to AlphaScreen® strepavidin donor beads (40 μg/mL). After incubation in the dark at 23° C. for 90 minutes with shaking, the AlphaScreen® signal was measured on a Synergy 2 plate reader (BioTek, Winooski, Vt.). IC50 values were determined from nonlinear regression fits of the data to a Sigmoidal dose response variable slope model in GraphPad Prism. Final assay conditions are 25 mM Tris [pH 7.4], 0.1% bovine serum albumin [BSA], 0.100 Triton X-100, 15 ng/ml TDP-43, 0.125 nM bTAR32, 10 ug/ml […].
Consider `COc1ccc(-c2cc(NCCCN(C)CCCN(C)C)c3ccccc3n2)cc1` [Example 1, N^1-(3-((2-(4-Methoxyphenyl)quinolin-4-yl)amino)propyl)-N^1,N^3,N^3-trimethyl propane-1,3-diamine], for which the IC50 amounted to 280 nM. For `CNCCCN(C)CCCNc1cc(-c2ccc(OC)cc2)nc2ccccc12` [Example 2, 2-(4-Methoxyphenyl)-N-(3-{methyl[3-(methylamino)propyl]-amino}propyl) quinolin-4-amine], the 50% inhibitory concentration (IC50) was 110 nM.

For the compound `COc1ccc(-c2cc(NCCCN(C)CCCN)c3ccccc3n2)cc1` [Example 3, N^1-(3-Aminopropyl)-N^3-(2-(4-methoxyphenyl)quinolin-4-yl)-N^1-methylpropane-1,3-diamine], the IC50 came to 80 nM. As to `COc1ccc(-c2cc(NCCCNCCCN3CCCCC3)c3ccccc3n2)cc1` [Example 4, N^1-(2-(4-Methoxyphenyl)quinolin-4-yl)-N^3-(3-(piperidin-1-yl)propyl) propane-1,3-diamine trihydrochloride], the IC50 was found to be 220 nM. Take `COc1ccc(-c2cc(NCCCN(C)CCCN3CCCCC3)c3ccccc3n2)cc1` [Example 5, N^1-(2-(4-methoxyphenyl)quinolin-4-yl)-N^3-methyl-N^3-(3-(piperidin-1-yl)propyl)propane-1,3-diamine trihydrochloride]: the IC50 worked out at 240 nM. Still for that read-out and setting: as for `COc1ccc(-c2cc(NCCCNCCCNC(=O)OC(C)(C)C)c3ccccc3n2)cc1` [Example 6, tert-Butyl N-{3-[(3-{[2-(4-methoxyphenyl)quinolin-4yl]amino}propyl)amino]propyl}carbamate], the figure is 760 nM. For the compound `COc1ccc(-c2cc(NCCCN(C)CCCN)c3c(F)cccc3n2)cc1` [Example 7, N^1-(3-aminopropyl)-N^3-(5-fluoro-2-(4-methoxyphenyl)quinolin-4-yl)-N^1-methyl propane-1,3-diamine], the IC50 is 220 nM.

For `COc1ccc(-c2cc(NCCCNCCCN)c3ccccc3n2)cc1` [Example 8, N-{3-[(3-Aminopropyl)amino]propyl}-2-(4-methoxyphenyl)quinolin-4-amine trihydrochloride], the half-maximal inhibitory concentration (IC50) was determined as 80 nM. Turning to `COc1ccc(-c2cc(NCCCN(C)CCCN)c3cc(OC)ccc3n2)cc1` [Example 9, N^1-(3-Aminopropyl)-N^3-(6-methoxy-2-(4-methoxyphenyl)quinolin-4-yl)-N^1-methylpropane-1,3-diamine], the 50% inhibitory concentration (IC50) amounted to 50 nM. Take `COc1ccc(-c2cc(NCCCN(C)CCCN)c3ccccc3n2)c(C)c1` [Example 10, N^1-(3-Aminopropyl)-N^3-(2-(2-methyl-4-methoxyphenyl)quinolin-4-yl)-N^1-methylpropane-1,3-diamine]: the IC50 worked out at 650 nM.

For the compound `CNCCCCN(C)CCCNc1cc(-c2ccc(OC)cc2)nc2ccccc12` [Example 12, N^1-(3-((2-(4-Methoxyphenyl)quinolin-4-yl)amino)propyl)-N^1,N^4-dimethyl butane-1,4-diamine trihydrochloride], the IC50 came out at 80 nM. With `COc1ccc(-c2cc(NCCCN(C)CCCN(C)CCF)c3ccccc3n2)cc1` [Example 13, N^1-(2-fluoroethyl)-N^3-(3-((2-(4-methoxyphenyl)quinolin-4-yl)amino)propyl)-N^1,N^3-dimethylpropane-1,3-diamine], the IC50 worked out at 330 nM. Take `COc1ccc(-c2cc(NCCCNCCCO)c3ccccc3n2)cc1` [Example 14, 3-((3-((2-(4-Methoxyphenyl)quinolin-4-yl)amino)propyl)amino)-propan-1-ol]: the IC50 turned out to be 900 nM. Regarding `COCCCNCCCNc1cc(-c2ccc(OC)cc2)nc2ccccc12` [Example 15, N-(3-(3-methoxypropylamino)propyl)-2-(4-methoxyphenyl)quinolin-4-amine], the half-maximal inhibitory concentration (IC50) was found to be 800 nM. Consider `COc1ccc(-c2cc(NCCCN(CCCN)C(C)=O)c3ccccc3n2)cc1` [Example 16, N-(3-(2-(4-Methoxyphenyl)quinolin-4-ylamino)propyl)-N-(3-aminopropyl) acetamide], for which the IC50 worked out at 1420 nM.

Take `COc1ccc(-c2cc(NCCCN(CCCN(C)C)CC3CC3)c3ccccc3n2)cc1` [Example 17, N^1-(Cyclopropylmethyl)-N^1-(3-((2-(4-methoxyphenyl)quinolin-4-yl)amino)propyl)-N^3,N^3-dimethylpropane-1,3-diamine]: the IC50 was determined as 180 nM. As to `COc1ccc(-c2cc(NCCCN(CCCN(C)C)CC3CN(C(=O)OC(C)(C)C)C3)c3ccccc3n2)cc1` [Example 18, tert-Butyl 3-(((3-(dimethylamino)propyl)(3-((2-(4-methoxyphenyl)quinolin-4-yl)amino)propyl)amino)methyl)azetidine-1-carboxylate], the IC50 was determined as 1410 nM. Regarding `COc1ccc(-c2cc(NCCCN(CCCN(C)C)CC3CCN(C(=O)OC(C)(C)C)CC3)c3ccccc3n2)cc1` [Example 19, tert-Butyl 4-(((3-(dimethylamino)propyl)(3-((2-(4-methoxyphenyl)quinolin-4-yl)amino)propyl)amino)methyl)piperidine-1-carboxylate], the IC50 was 950 nM. In the case of `COc1ccc(-c2cc(NCCCN(CCCN(C)C)CC3CNC3)c3ccccc3n2)cc1` [Example 20, N^1-(Azetidin-3-ylmethyl)-N^1-(3-((2-(4-methoxyphenyl)quinolin-4-yl)amino)propyl)-N^3,N^3-dimethylpropane-1,3-diamine], the IC50 was determined as 130 nM. With `COc1ccc(-c2cc(NCCCN(CCCN(C)C)CC3CCNCC3)c3ccccc3n2)cc1` [Example 21, N^1-(3-((2-(4-Methoxyphenyl)quinolin-4-yl)amino)propyl)-N^3,N^3-dimethyl-N^1-(piperidin-4-ylmethyl)propane-1,3-diamine], the IC50 was 120 nM. Regarding `COc1ccc(-c2cc(NCCCNCc3cncn3C)c3ccccc3n2)cc1` [Example 22, N^1-(2-(4-Methoxyphenyl)quinolin-4-yl)-N^3-((1-methyl-1H-imidazol-5-yl)methyl)propane-1,3-diamine], the IC50 came to 680 nM. In the case of `COc1ccc(-c2cc(NCCCN3CC4CNCC4C3)c3ccccc3n2)cc1` (stereo not drawn) [Example 23, N-(3-(Hexahydropyrrolo[3,4-c]pyrrol-2(1H)-yl)propyl)-2-(4-methoxyphenyl) quinolin-4-amine], the IC50 was 240 nM.

As to `COc1ccc(-c2cc(NCCCN(C)Cc3ccc(N)nc3)c3ccccc3n2)cc1` [Example 24, N^1-((6-Aminopyridin-3-yl)methyl)-N^3-(2-(4-methoxyphenyl)-quinolin-4-yl)-N^1-methylpropane-1,3-diamine], the IC50 came to 1110 nM. With `COc1ccc(-c2cc(NCCCN(C)CC(O)CN(C)C)c3ccccc3n2)cc1` (stereo not drawn) [Example 25, 1-(Dimethylamino)-3-((3-((2-(4-methoxyphenyl)quinolin-4-yl)-amino)propyl)(methyl)amino)propan-2-ol], the IC50 worked out at 220 nM. In the case of `COc1ccc(-c2cc(NCCCN(C)CCCN3CCC(O)CC3)c3ccccc3n2)cc1` [Example 26, 1-(3-((3-((2-(4-Methoxyphenyl)quinolin-4-yl)amino)propyl)-methylamino)propyl) piperidin-4-ol], the IC50 was 150 nM. On the same count and under the same terms, as for `COc1ccc(-c2cc(NCCCN3CC4CN(C(=O)OC(C)(C)C)CC4C3)c3ccccc3n2)cc1` (stereo not drawn) [Example 27, tert-butyl 5-(3-((2-(4-methoxyphenyl)quinolin-4-yl)amino)propyl)hexahydro-pyrrolo[3,4-c]pyrrole-2(1H)-carboxylate], the figure is 2080 nM. Consider `COc1ccc(-c2cc(NCCCN(C)Cc3ccc(N(C)C)nc3)c3ccccc3n2)cc1` [Example 28, N^1-((6-(dimethylamino)pyridin-3-yl)methyl)-N^3-(2-(4-methoxyphenyl)quinolin-4-yl)-N^1-methylpropane-1,3-diamine], for which the IC50 worked out at 1210 nM. Take `CN(CCCN)CCCNc1cc(-c2ccc(N3CCNCC3)cc2)nc2ccccc12` [Example 29, N^1-(3-aminopropyl)-N^1-methyl-N^3-(2-(4-(piperazin-1-yl)phenyl)quinolin-4-yl)propane-1,3-diamine]: the half-maximal inhibitory concentration (IC50) was determined as 80 nM. The same measure, in the same setting: then `COc1ccc(-c2cc(NCCCN(C)CC3CCN(C)CC3)c3ccccc3n2)cc1` [Example 30, N^1-(2-(4-methoxyphenyl)quinolin-4-yl)-N^3-methyl-N^3-((1-methylpiperidin-4-yl)methyl)propane-1,3-diamine], with 350 nM. Regarding `COc1ccc(-c2cc(NCCCN(C)CCC3CCCCN3)c3ccccc3n2)cc1` (stereo not drawn) [Example 31, N^1-(2-(4-methoxyphenyl)quinolin-4-yl)-N^3-methyl-N^3-(2-(piperidin-2-yl)ethyl)propane-1,3-diamine], the IC50 worked out at 350 nM. Same read-out and setting: as for `COc1ccc(-c2cc(NCCCNC3CCC4CNCC43)c3ccccc3n2)cc1` (stereo not drawn) [Example 33, N^1-(2-(4-Methoxyphenyl)quinolin-4-yl)-N^3-(octahydrocyclopenta[c]pyrrol-4-yl)propane-1,3-diamine dihydrochloride], the figure is 180 nM.

Staying with this assay, now noted: side-by-side, three independent assays, bt-TAR32; average.
`COc1ccc(-c2cc(NCCCN(C)CCCN)c3ccccc3n2)cc1` [Example 3, N^1-(3-Aminopropyl)-N^3-(2-(4-methoxyphenyl)quinolin-4-yl)-N^1-methylpropane-1,3-diamine]: the “increase in potency versus (XXVIII), average” value was determined as 14 ×.

Staying with this assay, now noted: side-by-side, three independent assays, bt-TAR32; range.
Regarding `COc1ccc(-c2cc(NCCCN(C)CCCN)c3ccccc3n2)cc1` [Example 3, N^1-(3-Aminopropyl)-N^3-(2-(4-methoxyphenyl)quinolin-4-yl)-N^1-methylpropane-1,3-diamine], the “increase in potency versus (XXVIII)” value is 11-18 ×.
